Results as given in patent publication US20250381274A1 (priority 2022, published 2025).
“And” between values parts separate entries of the source, which are not always exact repeats. Equal values may be shown once. “Also recorded” adds a separate entry of the source. Read-outs that look alike come from different tables or passages of the source.

Assays:
corneal buttons = tested on: corneal buttons; design: species or system rabbit
Procedure: • 3 rabbits, (n=8 pairs of 3 mm biopsy punched corneal buttons) • Laser Treatments: • Fidelity II, 1069 nm, 450 mW • Focusing: Marker/spark around, not touching the tissue • Objective: ZEISS 40X, NA=0.1463 • Z: increments 20 μm, 5 layers (several intervals) • 1stlayer 15 μm below surface of focus sparking • XY: 10 μm zigzag grid, 3 mm radius circle • With ˜12 gram compression • Motor speed 2.6 mm/s, full circle treatments: ˜25*5 mins • Sample Preparation: • −3 mm biopsy punch (1BT) • not connected to IV system • Prior to LT: 30 mins in 20% w/w Dextran 500 in PBS • 30 mins in 20% w/w ribose in DPBS (˜1.7M) • Post LT: Trypan blue is used to mark endothelium side • Imaged on the same day in DPBS • Overnight storage in DPBS in 4C fridge • 3 hrs prior to indentation, in room temp PBS • Piuma nano-indentation: • For each cornea button, the average of up to 16 indentations are acquired as
• 3 rabbits, (n=10 pairs of 3 mm biopsy punched corneal buttons) • 3 mm biopsy punch • not connected to IV system • Treatment Protocol-1 hr submerged in 20% w/v Ribose for all samples • 1 hr of UV-A lamp irradiation (control was not under UV) • Post Treatment Trypan blue is used to mark endothelium side • Imaged on the same day in DPBS • Overnight storage in DPBS in 4C fridge • 3 hrs prior to indentation, in room temp PBS • Piuma nano-indentation: • For each cornea button, the average of up to 16 indentations are acquired as representative modulus • The average of the representative modulus are presented in appended FIGS. 1-25.
Nano-Indentation: The corneal buttons were stored in PBS in a 4C fridge overnight for hydration equilibrium. Indentations of 5 μm depth using 29-35 μm diameter spherical indenters were performed on the anterior surface of the cornea buttons to acquire 25-second load-relaxation curves. For each button, the average of up to 16 indentations was used as the representative result. The equilibrium modulus and the viscoelastic ratio, defined as equilibrium modulus over instantaneous modulus, were calculated and compared.
Nanoindentation: Indentations were performed on the anterior surface of the cornea buttons. The equilibrium modulus E∞, instantaneous modulus Eo, and the viscoelastic ratio E∞/Eo, were calculated and compared.
After overnight incubation in PBS at 4C to reach equilibrium hydration, corneal buttons in Group A were allowed to return to room temperature the next morning after the respective treatment days while glued to the bottom of a petri-dish with the anterior surface of the corneal button facing upward. A displacement-controlled indenter (Piuma, Optics 11, Amsterdam, The Netherlands) was used to perform micro-indentations on top of the sample surface submerged in PBS; for each sample, multiple tests were performed following an array of 16 equally spaced (4×4) contact points with a spacing of 100 μm to 150 μm, covering roughly a 0.4×0.4 mm^2 area at the center of each corneal button. A spherical glass probe with a 34 μm radius and 0.2 N/m stiffness was used for samples in Group 1A; another spherical glass probe with a 25.5 μm radius and 4.09 N/m stiffness was used for Group 1B, 1C, 1D, and 2C. The indentation process at each contact point was comprised of three consecutive steps of loading Piezo movement of 5 μm for 2 seconds, holding time of 5 s, and unloading for 2 seconds. The load-relaxation curves obtained after indenting each point were then processed using a viscoelastic model to obtain equilibrium modulus and viscoelastic ratio following a fitting algorithm developed by Oyen.

corneal tissues = assay: Multiphoton/confocal imaging: autofluorescence and second harmonic generation signal; design: species or system rabbit; settings: anterior 100 μm
From the text: • The grey value of the top 100 μm (11 Z-stacks) of the cornea button was summed; • The average of the grey value summations are presented in appended FIGS. 1-25. • […] • The average of the grey value summations and Representative images at ˜600*600*100 μm in x, y, z are presented in appended FIGS. 1-25. The autofluorescence and second harmonic generation (SHG) signals of the corneal tissues in Group A were investigated to reveal the presence of CxLs and structural changes in collagenous ECM after hydration equilibrium in PBS on the same night of individual treatment days. Imaging was performed with a Nikon TI Eclipse inverted microscope using a Ti: Sapphire laser Chameleon Ultra II at 860 nm as the light source and a Nikon Apo LWD 20× objective for focusing. The emission filter was set at the FITC channel (475-650 nm, peak 525 nm) for autofluorescence signal collection and at the DAPI channel (400-600 nm, peak at 457 nm) for SHG signal collection. The XY scanning area for each sample was 635 μm by 635 μm, and Z scanning was 100 μm deep with 10 μm increments (stack of 11 images per sample). The summation of the average grey value processed in Image J at each layer was used as the representative signal strength for each sample.

[1] = 20% ribose 1 hr + 365 nm UVA lamp 1 hr
[2] = 20% ribose + 400 nm femtosecond laser
[3] = 20% ribose + 1069 nm femtosecond laser
[4] = 20% ribose + 1069 nm femtosecond laser, listed as Ribose
[5] = ribose + 365 nm UVA lamp, listed as Ribose
[6] = ribose + 400 nm femtosecond laser
[7] = ribose + 1069 nm femtosecond laser
[8] = ribose + 1069 nm femtosecond laser, listed as Ribose

SMILES: O=C[C@H](O)[C@H](O)[C@H](O)CO [ribose]
- instantaneous modulus change vs paired control (corneal buttons; [1]): significantly increased
- viscoelastic ratio change vs paired control (words) (corneal buttons; [1]): no change; also recorded: no significant E∞/Eo difference; also recorded: No significant changes; also recorded: None of the ROS-Glycation-CxL treatments produced a significant difference
- equilibrium modulus change vs paired control (words) (corneal buttons; 20% ribose 1 hr + 365 nm UVA lamp 1 hr, coverslip): significantly increased; also recorded: significantly higher; also recorded: statistically significant differences
- equilibrium modulus change vs paired control (words) (corneal buttons; 20% ribose 1 hr + 365 nm UVA lamp 1 hr, coverslip, listed as Ribose): significantly increased
- viscoelastic ratio change vs paired control (words) (corneal buttons; 20% ribose 1 hr + 365 nm UVA lamp 1 hr, listed as Ribose): not significantly changed
- equilibrium modulus change vs paired control (words) (corneal buttons; [2]): significantly higher; also recorded: statistically significant differences
- viscoelastic ratio change vs paired control (words) (corneal buttons; [2]): No significant changes; also recorded: None of the ROS-Glycation-CxL treatments produced a significant difference
- equilibrium modulus change vs paired control (words) (corneal buttons; [3]): significantly higher; also recorded: statistically significant differences
- instantaneous modulus change vs paired control (corneal buttons; [3]): significantly increased
- viscoelastic ratio change vs paired control (words) (corneal buttons; [3]): No significant changes; also recorded: None of the ROS-Glycation-CxL treatments produced a significant difference
- equilibrium modulus change vs paired control (words) (corneal buttons; [4]): significantly increased
- viscoelastic ratio change vs paired control (words) (corneal buttons; [4]): not significantly changed
- equilibrium modulus (corneal buttons; Group 1A: 20% ribose PBS 1 hr, then 1069 nm femtosecond laser 450 mW, coverslip pressed): 25 kPa and 26.7 kPa
- equilibrium modulus (corneal buttons; Group 1B: 20% ribose PBS 1 hr, then 400 nm femtosecond laser, coverslip pressed): 60 kPa and 63.2 kPa
- equilibrium modulus (corneal buttons; Group 1C: 20% ribose PBS 1 hr, then 365 nm UVA lamp 1 hr, coverslip pressed): 100 kPa and 115.3 kPa
- equilibrium modulus, 1.5 hr vs 3 hr irradiation (corneal buttons; Group 2C: ribose + 365 nm UVA lamp 1.5 hours vs 3 hours): no significant difference in mechanical properties; also recorded: no different in equilibrium modulus
- viscoelastic ratio, 3 hr vs 1.5 hr irradiation (corneal buttons; Group 2C: ribose + 365 nm UVA lamp 3 hours vs 1.5 hours): significantly higher viscoelastic ratio; also recorded: significant difference
- equilibrium modulus, fold of control's modulus (corneal buttons; ribose + 400 nm laser at 100 mW vs ribose-only control): ~4.6 fold
- equilibrium modulus, fold of control's modulus (corneal buttons; ribose + 1060 nm laser at 450 mW vs ribose-only control): ~3.8 fold
- equilibrium modulus, fold of paired control modulus (corneal buttons; ribose + one-hour 365 nm UVA lamp vs ribose-only control): ~8.2 fold
- equilibrium modulus (corneal buttons; ribose-only paired controls, no light exposure): around 10 kPa
- autofluorescence signal intensity change vs paired control (words) (corneal tissues; ribose + 365 nm UVA lamp): increased significantly; also recorded: slightly increased; also recorded: Statistical significance
- second harmonic generation signal intensity change vs paired control (words) (corneal tissues; ribose + 365 nm UVA lamp): decreased significantly; also recorded: statistically significant decreases; also recorded: Statistical significance
- autofluorescence signal intensity change vs paired control (words) (corneal tissues; [5]): increased
- second harmonic generation signal intensity change vs paired control (words) (corneal tissues; [5]): decreased
- autofluorescence signal intensity change vs paired control (words) (corneal tissues; [6]): increased significantly; also recorded: slightly increased; also recorded: Statistical significance
- second harmonic generation signal intensity change vs paired control (words) (corneal tissues; [6]): decreased significantly; also recorded: statistically significant decreases; also recorded: Statistical significance
- autofluorescence signal intensity change vs paired control (words) (corneal tissues; [7]): increased significantly; also recorded: slightly increased; also recorded: Statistical significance
- second harmonic generation signal intensity change vs paired control (words) (corneal tissues; [7]): decreased significantly; also recorded: statistically significant decreases; also recorded: Statistical significance
- autofluorescence signal intensity change vs paired control (words) (corneal tissues; [8]): increased
- second harmonic generation signal intensity change vs paired control (words) (corneal tissues; [8]): decreased
